The text below walks through data of publication PMC3349712, “DipA, a Pore-Forming Protein in the Outer Membrane of Lyme Disease Spirochetes Exhibits Specificity for the Permeation of Dicarboxylates” (PLoS ONE, 2012).

T1 sequence (O51379 entry or part of it): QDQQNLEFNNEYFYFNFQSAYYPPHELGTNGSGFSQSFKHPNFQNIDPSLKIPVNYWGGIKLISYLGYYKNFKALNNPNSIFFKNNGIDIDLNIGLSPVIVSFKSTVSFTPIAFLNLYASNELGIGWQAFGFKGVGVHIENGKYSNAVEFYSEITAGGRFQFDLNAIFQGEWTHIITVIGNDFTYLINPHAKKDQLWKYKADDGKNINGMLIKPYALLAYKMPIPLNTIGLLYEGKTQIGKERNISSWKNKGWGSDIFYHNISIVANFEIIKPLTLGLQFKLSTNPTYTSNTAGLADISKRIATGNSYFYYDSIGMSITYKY

This assay has as its target T1, DipA (Borreliella burgdorferi, UniProt O51379).
T1 construct: gene BB_0418; native protein from outer membrane fraction of B. burgdorferi B31 delta-p66, hydroxyapatite chromatography in Genapol, untagged; predicted 20-residue signal peptide removed; 36 kDa; minor truncated OspA/OspB in fraction
The experiment in a line: biochemical. Type of assay: binding. From the text: planar lipid bilayer, titration of channel conductance block on DipA
By Kd is commonly meant the free concentration of one partner at which half of the binding sites on the other are occupied at equilibrium, for simple one-to-one binding. A lower Kd goes with higher affinity. Compound `O=C(O)CC(=O)C(=O)O` [Oxaloacetate] gave a Kd of 50.3 µM.
Regarding `O=C(O)CCC(=O)C(=O)O` [2-Oxoglutarate], the affinity, expressed as Kd, was 286 µM.
The compound `O=C(O)/C=C\C(=O)O` [Maleate] had a Kd of 35.3 µM.
With `N[C@@H](CC(=O)O)C(=O)O` [Aspartate], the Kd was 769 µM.
Consider `O=C(O)CC(O)(CC(=O)O)C(=O)O` [Citrate], for which the dissociation constant Kd was 76.9 µM.
As to `O=C(O)C[C@H](O)C(=O)O` [Malate], the Kd is 769 µM.
For `O=C(O)CCC(=O)O` [Succinate], the dissociation constant Kd was 164 µM.
Compound `CC(=O)C(=O)O` [Pyruvate] gave a Kd of 2130 µM.
Compound `O=C(O)c1ccccc1C(=O)O` [Phthalate] had an equilibrium dissociation constant (Kd) of 175 µM.
Compound `N[C@@H](CCC(=O)O)C(=O)O` [Glutamate] showed a Kd of 800 µM.
`O=C(O)/C=C/C(=O)O` [Fumarate] showed a Kd of 2380 µM.
